PMC8617944, “Preclinical Pharmacokinetics and Acute Toxicity in Rats of 5-{[(2E)-3-Bromo-3-carboxyprop-2-enoyl]amino}-2-hydroxybenzoic Acid: A Novel 5-Aminosalicylic Acid Derivative with Potent Anti-Inflammatory Activity” (Molecules, 2021)
Entries after “also recorded” stand apart in the source; their conditions may differ.

Legend:
[1] = Stability of stock solutions; assay type: physicochemical; details: 1000 μg/mL in acetonitrile-methanol (50:50, v/v), 2–4 °C
Procedure: Six stock solutions at 1000 μg/mL of C1 were prepared by dissolving 10 mg in a mixture of acetonitrile-methanol (50:50, v/v), adjusting the volume in a volumetric flask of 10 mL and storing the final solution at 2–4 °C. […] Calibration standards were prepared daily from the stock solution at concentrations of 0.1, 0.5, 1, 5, 10, 50, and 100 μg/mL, and calibration curves were constructed in triplicate by plotting known concentrations of the standard versus the detector response area (File S4).

[2] = test system: 12-O-tetradecanoylphorbol acetate (TPA)-induced mouse ear edema; design: method as in ref 32, 33 = [32]; doi:10.1016/j.arabjc.2016.12.026; 32. Cabrera Pérez L.C. Gutiérrez Sánchez M. Mendieta Wejebe J.E. Hernández Rodríguez M. Fragoso Vázquez M.J. Salazar J.R. Correa Basurto J. Padilla Martínez I.I. Rosales Hernández M.C. Novel 5-aminosa || [33]; 33. Correa Basurto J. Rosales Hernández M.C. Mendieta Wejebe J.E. Trujillo Ferrara J.G. Padilla Martínez I.I. Ramírez Durán L.A. Alemán González Duhart D. Síntesis de un derivado del ácido 5-aminosali; details: cited from earlier work
[3] = Stability of C1 in rat plasma (RP-HPLC); assay type: in vitro ADME; details: for Difference at 12 h (%) / Difference at 24 h (%) / Difference at 48 h (%): rat plasma
Procedure: C1 was quantified in a liquid chromatograph Agilent 1260 Infinity Series (Agilent Technologies, Palo Alto, CA, USA) equipped with a quaternary pump delivery system (G1311B), robotic autosampler (G1316A), column thermostat (G1316A), and a multi-wavelength UV detector (G1315C). The results were analyzed with OpenLab CDS EZChrom. Separation was performed on a Zorbax SB-Phenyl column (5 µm, 4.6 × 150 mm, Agilent Technologies, Palo Alto, CA, USA) and UV detection was carried out at 305 nm. The column temperature was maintained at 25 °C, and the injection volume was 10 μL. The mobile phase consisted of a mixture of (A) acetonitrile, (B) methanol, and (C) water at a ratio of 50% A, 10% B, and 40% C, at a flow rate of 1.0 mL/min. The total analysis time for each sample was 5.0 min when using an isocratic elution. It was not necessary to equilibrate between each injection.
In addition, the potential interference of heparin, ketamine, and xylazine was investigated. Method specificity was assessed by the values of peak identity and purity of C1. A peak purity angle that is less than the peak threshold angle is an indication of spectral homogeneity or purity of C1. Stability of C1 in plasma was evaluated in triplicate using the quality control samples at four concentrations. Samples were stored at 25 °C for 12, 24, and 48 h (short-term stability), and three freeze-thaw cycles at −20 to +25 °C for 12, 24, and 48 h. […] The concentration of C1 after each storage period was compared to the initial concentration, which was determined for freshly prepared samples [57, 59].

[4] = Plasma protein binding assay (ultrafiltration, RP-HPLC); assay type: in vitro ADME, Wistar rats; details: rat plasma
Procedure: Different quantities of C1 stock solution at 10 mg/mL were spiked into 600 µL of freshly obtained blank rat plasma to give a final concentration of 1, 5, 10, and 20 µg/mL. The resulting samples were incubated at 37 °C for 4 h. After incubation, an aliquot of 100 µL was removed to determine the total concentration, and another aliquot of 500 µL was transferred to a 10 kD cut-off ultrafiltration device (Millipore Corporation, Burlington, MA, USA). Subsequently, samples were centrifuged at 2000× g and 37 °C for 2 h. The free drug concentration of C1 was measured by evaluating 100 µL of ultrafiltrate with RP-HPLC, interpolating the main areas of the samples into a standard curve constructed with known amounts of C1. The percentage of protein binding was calculated with the following formula (1). Protein binding ratio (%) = […](1)

[5] = design: method as in ref 32 = [32]; doi:10.1016/j.arabjc.2016.12.026; 32. Cabrera Pérez L.C. Gutiérrez Sánchez M. Mendieta Wejebe J.E. Hernández Rodríguez M. Fragoso Vázquez M.J. Salazar J.R. Correa Basurto J. Padilla Martínez I.I. Rosales Hernández M.C. Novel 5-aminosa; details: Osiris Property Server Explorer; cited from earlier work
[6] = refrigeration (4 °C), 0.1 µg/mL
[7] = refrigeration (4 °C), 0.5 µg/mL
[8] = refrigeration (4 °C), 100 µg/mL
[9] = room temperature (25 °C), 0.1 µg/mL, difference to nominal concentration
[10] = room temperature (25 °C), 0.5 µg/mL
[11] = room temperature (25 °C), 10 µg/mL
[12] = room temperature (25 °C), 100 µg/mL
[13] = three freeze–thaw cycles (−20 to +25 °C), 0.1 µg/mL
[14] = three freeze–thaw cycles (−20 to +25 °C), 0.5 µg/mL
[15] = three freeze–thaw cycles (−20 to +25 °C), 10 µg/mL
[16] = three freeze–thaw cycles (−20 to +25 °C), 100 µg/mL

SMILES: O=C(/C=C(/Br)C(=O)O)Nc1ccc(O)c(C(=O)O)c1 [Compound C1, 5-{[(2E)-3-bromo-3-carboxyprop-2-enoyl]amino}-2-hydroxybenzoic acid]
- stability of stock solutions [1]: stable for three months
- anti-inflammatory activity [2]: anti-inflammatory agent in mice; also recorded: comparable to that of indomethacin; also recorded: exhibited anti-inflammatory activity
- stability in rat plasma ([3]; 4 °C): up to 72 h at 4 °C
- stability in rat plasma ([3]; 25 °C): stable in rat plasma stored up to 48 h at 25 °C
- Difference at 12 h (%) [3, 6]: 5.1%
- Difference at 24 h (%) [3, 6]: 14.0%
- Difference at 48 h (%) [3, 6]: 4.3%
- Difference at 12 h (%) [3, 7]: 4.0%
- Difference at 24 h (%) [3, 7]: 3.6%
- Difference at 48 h (%) [3, 7]: 5.3%
- Difference at 12 h (%) ([3]; refrigeration (4 °C), 10 µg/mL): 10.1%
- Difference at 24 h (%) ([3]; refrigeration (4 °C), 10 µg/mL): 13.1%
- Difference at 48 h (%) ([3]; refrigeration (4 °C), 10 µg/mL): 9.3%
- Difference at 12 h (%) [3, 8]: 1.2%
- Difference at 24 h (%) [3, 8]: 0.2%
- Difference at 48 h (%) [3, 8]: 5.2%
- Difference at 12 h (%) [3, 9]: 10.7%
- Difference at 24 h (%) [3, 9]: 3.2%
- Difference at 48 h (%) [3, 9]: 3.8%
- Difference at 12 h (%) [3, 10]: 3.2%
- Difference at 24 h (%) [3, 10]: 7.8%
- Difference at 48 h (%) [3, 10]: 4.1%
- Difference at 12 h (%) [3, 11]: 9.5%
- Difference at 24 h (%) [3, 11]: 6.5%
- Difference at 48 h (%) [3, 11]: 3.7%
- Difference at 12 h (%) [3, 12]: 0.5%
- Difference at 24 h (%) [3, 12]: 6.5%
- Difference at 48 h (%) [3, 12]: 5.4%
- Difference at 12 h (%) [3, 13]: 5.1%
- Difference at 24 h (%) [3, 13]: 1.76%
- Difference at 48 h (%) [3, 13]: 3.4%
- Difference at 12 h (%) [3, 14]: 0.1%
- Difference at 24 h (%) [3, 14]: 0.3%
- Difference at 48 h (%) [3, 14]: 1.0%
- Difference at 12 h (%) [3, 15]: 0.7%
- Difference at 24 h (%) [3, 15]: 1.2%
- Difference at 48 h (%) [3, 15]: 3.2%
- Difference at 12 h (%) [3, 16]: 0.1%
- Difference at 24 h (%) [3, 16]: 0.6%
- Difference at 48 h (%) [3, 16]: 2.0%
- stability in rat plasma ([3]; three freeze–thaw cycles): stable before the three freeze–thaw cycles
- fraction unbound at 4 h, 1 µg/mL ([4]; Wistar, 1 µg/mL, read-out: Percentage of Unbound Fraction ± SD (%)): 0.963 ± 0.014
- fraction unbound at 4 h, 5 µg/mL ([4]; Wistar, 5 µg/mL, read-out: Percentage of Unbound Fraction ± SD (%)): 0.942 ± 0.024
- fraction unbound at 4 h, 10 µg/mL ([4]; Wistar, 10 µg/mL, read-out: Percentage of Unbound Fraction ± SD (%)): 0.934 ± 0.015
- fraction unbound at 4 h, 20 µg/mL ([4]; Wistar, 20 µg/mL, read-out: Percentage of Unbound Fraction ± SD (%)): 0.948 ± 0.023
- fraction unbound at 4 h ([4]; Wistar, 1 to 20 μg/mL): 0.934 to 0.963
- Percentage of Bound Fraction ± SD (%) ([4]; 1 µg/mL): 3.7 ± 1.1%
- Percentage of Bound Fraction ± SD (%) ([4]; 5 µg/mL): 5.8 ± 2.4%
- Percentage of Bound Fraction ± SD (%) ([4]; 10 µg/mL): 6.6 ± 1.5%
- Percentage of Bound Fraction ± SD (%) ([4]; 20 µg/mL): 5.2 ± 2.3%
- predicted toxicity index [5]: low toxicity index
